Source: the NIST ThermoML archive (doi:10.1021/je049907t)
± gives the expanded uncertainty stated by the source.

Tests used:
[1] = for Normal melting temperature: Crystal 1, visual observation
[2] = Molar enthalpy of transition or fusion; details: Crystal

Normal melting temperature [1] [°C] | Molar enthalpy of transition or fusion [2] [kcal/mol] | Triple point temperature ([1]; Crystal) [K] | SMILES
178.28 ± 0.5 | – | – | Cc1nc2ccccc2[nH]1 [2-methylbenzimidazole]
146 ± 0.5 | – | – | Cc1ncc[nH]1 [2-methylimidazole]
172.36 ± 0.5 | – | – | c1ccc2[nH]cnc2c1 [benzimidazole]
– | 8.17 ± 0.454 | 504.84 ± 1 | c1ccc(-c2nc[nH]c2-c2ccccc2)cc1 [4,5-diphenylimidazole]
